Measured values from patent US9120768B2, “Compositions and methods for treatment of cystic fibrosis and diseases associated with aberrant protein cellular processing” (The Hospital for Sick Children, priority 2010, dated 2015).

Experiments:
293MSR-GT cells = assay: Sensitivity of 293MSR-GT cells toward compound; conditions: compound could not be tested by YFP quenching or immunoblotting
delF508-CFTR [1] = biological target: T1, delF508-CFTR (Homo sapiens, UniProt P13569, DEL508-508); assay: Short circuit current (Ussing chamber) in primary human bronchial epithelial cells; type: cell-based; parameters: primary cultures of human bronchial epithelia (HBE) obtained from transplant patients homozygous for the delF508 mutation; host or cells: primary human bronchial epithelial (HBE) cells from delF508/delF508 lung transplant patients; conditions: 10 μM, 48 hrs, HBE cells of delF508/delF508 patients, versus vehicle alone; FIGS. 5-7
delF508-CFTR [2] = biological target: T1, delF508-CFTR; assay: Cellomics YFP quenching assay; type: cell-based; parameters: expressed in transfected cells; host or cells: HEK293 MSR GripTite (293MSR-GT) cells, also stably expressing eYFP(H148Q/I152L); conditions: 10 μM, 48 hrs, 37° C., 293MSR-GT cells, stimulated with FIG; FIG. 1
Procedure: Cellomics YFP quenching assay was performed as described previously^66. […] After 48 hrs of incubation the medium was replaced with 152 μl of chloride solution (137 mM NaCl, 2.7 mM KCl, 0.7 mM CaCl2, 1.1 mM MgCl2, 1.5 mM KH2PO4, 8.1 mM Na2HPO4, pH 7.1), in the absence or presence of FIG (25 M Forskolin, 45 μM IBMX, 50 μM Genistein) at 37° C. After 20 min incubation, 92 μl of iodide buffer (137 mM NaI, 2.7 mM KCl, 0.7 mM CaCl2, 1.1 mM MgCl2, 1.5 mM KH2PO4, 8.1 mM Na2HPO4, pH 7.1) was added (final concentration 52 mM) and the decrease in fluorescence intensity over time was recorded using the Cellomics VTI (ThermoFisher), at 30° C. […] After two days of incubation, cells were stimulated for 20 min with FIG mixture. They were then exposed to low Cl^−/high I^− medium by replacing 137 mM Na^+Cl^− with Na^+I^−, and fluorescence quenching of the cells due to Cl^−/I^− exchange (presumably via CFTR) was monitored and quantified over time by the Cellomics VTI reader.

delF508-CFTR [3] = biological target: T1, delF508-CFTR; assay: Immunoblotting for delF508-CFTR maturation (band C); type: cell-based; parameters: expressed in transfected cells; host or cells: HEK293 MSR GripTite (293MSR-GT) cells, also stably expressing eYFP(H148Q/I152L); conditions: 10 μM, 48 hrs, 37° C., 293MSR-GT cells, anti-CFTR immunoblot; FIG. 2
Procedure: Protein expression and rescue of delF508-CFTR were validated by immunoblotting with anti-CFTR monoclonal antibodies (clone M3A7, Chemicon Cat.#MAB3480) as described previously^66. […] The rescue of delF508-CFTR was validated by Western blotting as described previously^66. […] Proteins were resolved on SDS-PAGE, transferred to nitrocellulose membranes and immunoblotted with anti-CFTR monoclonal antibodies (M3A7, 1 μg/ml) or anti-β-actin antibodies (1:10000). Membranes were washed with 5% Blotto, incubated with HRP-conjugated goat anti-mouse antibody (1:5000) and washed with PBST. Signal was detected with SuperSignal West Femto reagent.

TAK1 = TAK1 (Homo sapiens, UniProt O43318); conditions: competitive with ATP; cited from earlier work
ERK2 = ERK2 (Homo sapiens, UniProt P28482); conditions: cited from earlier work
inflammation = conditions: animal model, topical application; cited from earlier work

T1 sequence (P13569 with tags, fused parts or gaps DEL508-508): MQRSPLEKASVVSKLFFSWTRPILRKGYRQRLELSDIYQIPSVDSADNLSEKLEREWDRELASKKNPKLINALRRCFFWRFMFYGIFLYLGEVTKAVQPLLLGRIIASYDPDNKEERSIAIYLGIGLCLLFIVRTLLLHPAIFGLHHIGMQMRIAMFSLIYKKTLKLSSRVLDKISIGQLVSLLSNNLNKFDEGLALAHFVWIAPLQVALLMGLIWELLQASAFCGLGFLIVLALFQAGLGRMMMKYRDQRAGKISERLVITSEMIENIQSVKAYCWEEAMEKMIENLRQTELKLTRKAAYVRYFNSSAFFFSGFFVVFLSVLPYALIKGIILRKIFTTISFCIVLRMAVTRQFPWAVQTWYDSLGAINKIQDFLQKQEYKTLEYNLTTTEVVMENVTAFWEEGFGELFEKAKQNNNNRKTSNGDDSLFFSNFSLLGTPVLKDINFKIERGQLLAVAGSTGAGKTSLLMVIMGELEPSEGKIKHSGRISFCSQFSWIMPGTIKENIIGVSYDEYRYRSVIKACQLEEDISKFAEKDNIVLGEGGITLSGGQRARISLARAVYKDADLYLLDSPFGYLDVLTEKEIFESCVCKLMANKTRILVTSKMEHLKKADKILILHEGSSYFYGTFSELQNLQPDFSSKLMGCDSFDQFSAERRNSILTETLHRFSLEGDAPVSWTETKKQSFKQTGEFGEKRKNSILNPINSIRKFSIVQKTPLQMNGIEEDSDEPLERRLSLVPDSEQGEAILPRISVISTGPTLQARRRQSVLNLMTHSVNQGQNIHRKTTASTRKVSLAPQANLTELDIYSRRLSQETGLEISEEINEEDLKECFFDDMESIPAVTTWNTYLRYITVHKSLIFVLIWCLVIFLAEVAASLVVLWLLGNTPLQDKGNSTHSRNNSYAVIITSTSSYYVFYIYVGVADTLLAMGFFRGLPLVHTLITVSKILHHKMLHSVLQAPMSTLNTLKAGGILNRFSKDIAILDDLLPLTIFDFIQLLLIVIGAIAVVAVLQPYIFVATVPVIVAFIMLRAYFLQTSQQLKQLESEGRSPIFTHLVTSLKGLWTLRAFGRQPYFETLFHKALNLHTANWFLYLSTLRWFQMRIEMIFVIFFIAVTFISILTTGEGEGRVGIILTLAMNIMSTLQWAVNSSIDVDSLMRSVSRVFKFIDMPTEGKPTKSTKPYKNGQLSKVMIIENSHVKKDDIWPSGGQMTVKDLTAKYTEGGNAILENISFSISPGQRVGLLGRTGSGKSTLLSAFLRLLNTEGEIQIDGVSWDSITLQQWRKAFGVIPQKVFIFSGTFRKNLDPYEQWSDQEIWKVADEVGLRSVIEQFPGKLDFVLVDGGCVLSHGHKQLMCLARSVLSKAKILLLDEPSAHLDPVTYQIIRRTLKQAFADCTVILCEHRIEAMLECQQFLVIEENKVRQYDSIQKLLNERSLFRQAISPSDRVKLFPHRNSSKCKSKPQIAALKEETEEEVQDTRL
TAK1, sequence (O43318 whole entry): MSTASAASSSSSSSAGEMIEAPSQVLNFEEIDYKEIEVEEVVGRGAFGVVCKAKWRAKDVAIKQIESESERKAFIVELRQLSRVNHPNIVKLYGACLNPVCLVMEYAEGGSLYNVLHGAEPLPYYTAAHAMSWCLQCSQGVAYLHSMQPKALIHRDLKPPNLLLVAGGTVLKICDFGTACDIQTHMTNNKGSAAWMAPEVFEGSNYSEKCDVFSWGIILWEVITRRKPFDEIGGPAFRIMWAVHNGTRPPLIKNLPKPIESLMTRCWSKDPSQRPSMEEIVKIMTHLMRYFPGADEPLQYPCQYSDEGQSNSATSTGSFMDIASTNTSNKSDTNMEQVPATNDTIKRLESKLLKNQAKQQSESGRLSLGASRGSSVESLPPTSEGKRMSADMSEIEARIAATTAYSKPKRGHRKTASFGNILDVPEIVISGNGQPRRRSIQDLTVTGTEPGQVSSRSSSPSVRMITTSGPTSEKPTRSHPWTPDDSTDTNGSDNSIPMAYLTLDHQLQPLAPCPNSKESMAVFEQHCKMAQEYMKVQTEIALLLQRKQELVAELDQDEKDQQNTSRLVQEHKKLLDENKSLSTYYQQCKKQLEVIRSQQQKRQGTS
TAK1, sequence (Q15750 whole entry partner): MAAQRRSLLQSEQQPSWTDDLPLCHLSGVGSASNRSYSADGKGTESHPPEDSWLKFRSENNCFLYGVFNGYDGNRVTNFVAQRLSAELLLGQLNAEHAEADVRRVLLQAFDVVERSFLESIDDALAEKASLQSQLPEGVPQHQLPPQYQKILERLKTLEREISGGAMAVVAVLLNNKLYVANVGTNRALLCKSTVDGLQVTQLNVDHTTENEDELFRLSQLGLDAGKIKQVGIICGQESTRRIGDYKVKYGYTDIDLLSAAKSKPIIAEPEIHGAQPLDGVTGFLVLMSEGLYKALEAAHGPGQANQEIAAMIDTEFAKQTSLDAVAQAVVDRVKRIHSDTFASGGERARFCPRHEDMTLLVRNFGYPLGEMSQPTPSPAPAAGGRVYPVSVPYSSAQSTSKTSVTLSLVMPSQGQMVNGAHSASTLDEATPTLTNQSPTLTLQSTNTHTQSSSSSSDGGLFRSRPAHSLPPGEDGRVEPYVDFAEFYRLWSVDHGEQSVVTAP
ERK2, sequence (P28482 whole entry, species assumed): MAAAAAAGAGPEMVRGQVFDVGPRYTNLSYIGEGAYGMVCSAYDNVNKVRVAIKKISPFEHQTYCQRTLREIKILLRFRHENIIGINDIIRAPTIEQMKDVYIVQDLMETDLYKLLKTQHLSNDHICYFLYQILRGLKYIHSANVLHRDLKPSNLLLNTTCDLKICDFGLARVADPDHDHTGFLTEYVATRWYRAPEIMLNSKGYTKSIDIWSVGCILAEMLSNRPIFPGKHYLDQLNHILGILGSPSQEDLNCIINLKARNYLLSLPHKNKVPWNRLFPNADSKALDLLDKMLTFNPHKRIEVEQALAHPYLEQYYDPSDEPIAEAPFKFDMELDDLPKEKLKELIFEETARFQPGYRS

SMILES: Cc1[nH]c(/C=C2\C(=O)Nc3ccccc32)c(C)c1CCC(=O)O [SU6668, 3-[2,4-dimethyl-5-[(Z)-(2-oxo-1H-indol-3-ylidene)methyl]-1H-pyrrol-3-yl]propanoic acid]
- sensitivity of 293MSR-GT cells toward compound (293MSR-GT cells): increased sensitivity
- delF508-CFTR chloride channel activity (short-circuit current) (delF508-CFTR [1]): enhanced activity of the mutant CFTR

SMILES: Cc1c[nH]c(/C=C2\C(=O)Nc3ccccc32)c1CCC(=O)O [SU5402, 3-[4-methyl-2-[(Z)-(2-oxo-1H-indol-3-ylidene)methyl]-1H-pyrrol-3-yl]propanoic acid]
- delF508-CFTR activity (fluorescence quenching due to Cl-/I- exchange) (delF508-CFTR [2]): restores delF508-CFTR activity to a level that is similar to that obtained with corr-4-a
- appearance of mature delF508-CFTR protein (band C) (delF508-CFTR [3]): led to the appearance of the mature band C, similar to that seen with corr-4-a
- delF508-CFTR chloride channel activity (short-circuit current) (delF508-CFTR [1]): enhanced activity of the mutant CFTR

SMILES: COc1cc(O)c2c(c1)/C=C/C[C@H](O)[C@H](O)C(=O)/C=C\C[C@H](C)OC2=O [(5Z)-7-oxozeaenol, (3S,5Z,8S,9S,11E)-3,4,9,10-tetrahydro-8,9,16-trihydroxy-14-methoxy-3-methyl-1H-2-benzoxacyclotetradecin-1,7(8H)-dione]
- TAK1 inhibition (TAK1): irreversibly inhibits TAK1
- ERK2 enzyme activity inhibition (ERK2): inhibit ERK2 enzyme activity
- prevention of inflammation (inflammation): effectively prevent inflammation in an animal model
- delF508-CFTR activity (fluorescence quenching due to Cl-/I- exchange) (delF508-CFTR [2]): restores delF508-CFTR activity to a level that is similar to that obtained with corr-4-a
- appearance of mature delF508-CFTR protein (band C) (delF508-CFTR [3]): led to the appearance of the mature band C, similar to that seen with corr-4-a
- delF508-CFTR chloride channel activity (short-circuit current) (delF508-CFTR [1]): enhanced activity of the mutant CFTR
